Literature values, collected in US6599527B1, “Preparation of pharmaceutical compositions” (Phares Pharmaceutical Research N.V., priority 1997, dated 2003).

Details: in vivo

fraction entering the GI tract that is absorbed: Over 90%
Substance: phosphatidylcholine [phosphatidylcholine (PC)]
